54 molecules from patent publication US20140336182A1, “Aurora Kinase Modulators and Method of Use” (Amgen Inc., priority 2013, published 2014) can be followed below.

In the first assay the test system is HeLa cells. In words: HeLa cell 24 hr ploidy assay (DNA content). The assay is classed as cell-based. To be noted: Homo sapiens, HeLa, 4N ploidy, average, read-out: 24h_4NPloidy EC50_IP (uM Avg). Here is the method:
HeLa cell 24 hr ploidy assay protocol
The purpose of this assay is to evaluate the ability of selected individual compounds to induce Deoxyribonucleic acid (DNA) content (ploidy) in cells through failed cell division. Cell cycle analysis is a rapid and efficient way to evaluate the status of DNA content (ploidy) of a given cell. HeLa cells (1×10^4 HeLa cells/well) in 100 ul of media (MEM+10% FBS) were plated in 96-well plates (Packard View) and cultured for 24 hrs at 37° C. maintained in a 5% CO2 atmosphere. […] The compounds were serially diluted in DMSO (0.25% final concentration). The cells were fixed (3.7% Formaldehyde and 1% glutaraldehyde) and permeabilized (1×PBS with 1% BSA and 0.2% Triton X-100) in preparation for nuclear staining. The well plates were stained for 45 minutes at RT in the dark using Hoechest 33342 nuclear stain at 0.5 ug.ml (Stock of 10 mg/ml, Invitrogen, CA, Cat #H3570). The nuclear stain was removed by aspiration and the cells were washed with wash buffer. A Cellomics Array Scan Vti plate reader was used to acquire the DNA ploidy data of the cells using Cell Cycle bioapplication. Numbers for each of “valid cell count/well”, “% of 4N cells” and “% of >4Ncells” were calculated with the assistance of an Activity Base 5.1ca software and dose curves were generated using an XLFit software. With XLFit, final EC50 IP and EC50 transit values, as well as the Max and Min, were calculated for each curve.
Take `COc1cc2ncnc(Oc3ccc(Nc4nnc(-c5cc(C)ccn5)c5ccccc45)cc3)c2cc1OC` [compound 123]: the EC50 turned out to be 0.077 µM.
On the same count and under the same terms, the value for `COc1cc2nccc(Oc3ccc(Nc4nnc(-c5cc(C)ccn5)c5ccccc45)cc3)c2cc1OC` [compound 117] was 0.066 µM; that for `COc1cccc(-c2nnc(Nc3ccc(Oc4ccnc5cc(OC)c(OC)cc45)cc3)c3ccccc23)n1` [compound 101] was 0.009 µM; that for `COCc1cccc(-c2nnc(Nc3ccc(Oc4ccnc5cc(OC)cnc45)cc3)c3ccccc23)n1` [compound 120] was 0.305 µM.
For the molecule `COc1cnc2c(Oc3ccc(Nc4nnc(-c5cccc(C)n5)c5ccccc45)cn3)ccnc2c1` [compound 128, N-(6-((7-(methyloxy)-1,5-naphthyridin-4-yl)oxy)-3-pyridinyl)-4-(6-methyl-2-pyridinyl)-1-phthalazinamine], the EC50 is greater than 1.2 µM.
For the molecule `CCc1cc(-c2ccccc2)nnc1Nc1ccc(Oc2ccnc3cc(OC)cnc23)cc1` [compound 108], the EC50 is 0.083 µM.
On to `COc1cnc2c(Oc3ccc(Nc4nnc(-c5ccc(OC(C)C)cc5)c5ccccc45)cc3)ccnc2c1` [compound 137], for which the EC50 came to 0.85 µM.
On the same count and under the same terms, with `COc1cc2nccc(Oc3ccc(Nc4nnc(-c5ccc(C(C)(C)C)cc5)c5ccccc45)cc3)c2cc1OC` [compound 106] the figure was 0.033 µM; with `CCc1cc(-c2ccccc2)nnc1Nc1ccc(Oc2ccnc3cc(C#N)ccc23)cc1` [compound 149], 0.42 µM.
Still for that read-out and setting: with `COc1cnc2c(Oc3ccc(Nc4nnc(-c5cccc(OC)n5)c5ccccc45)cc3)ccnc2c1` [compound 99] the figure was 0.023 µM.
Take `Brc1ccc2nccc(Oc3ccc(Nc4nnc(-c5ccccc5)c5ccccc45)cc3)c2c1` [compound 134]: the EC50 is 0.091 µM.
Regarding `COc1ccc(F)cc1-c1nnc(Nc2ccc(Oc3ccnc4cc(C(N)=O)ccc34)cc2)c2ccccc12` [Example 47, 4-(4-(4-(5-fluoro-2-methoxyphenyl)phthalazin-1-ylamino)phenoxy)quinoline-7-carb oxamide], the EC50 was greater than 1.2 µM.
Take `Cc1ccc(-c2nnc(Nc3ccc(Oc4ccnc5cc(C#N)ccc45)cc3)c3ccccc23)s1` [compound 162]: the EC50 amounted to 0.004 µM.
Same read-out and setting: with `COc1cc2nccc(Oc3ccc(Nc4nnc(-n5nc(C)cc5C)c5ccccc45)cc3F)c2cc1OC` [compound 77] the figure was 3.09 µM.

The assay is the same for the next values; noted with them: Homo sapiens, HeLa, HeLa cells, 4N ploidy, average, read-out: 24h_4NPloidy EC50_IP (uM Avg).
With `Cc1csc(-c2nnc(Nc3ccc(Oc4ccnc5ccc(OC(F)(F)F)cc45)cc3)c3ccccc23)c1` [compound 575], the EC50 was 0.112 µM.
On the same count and under the same terms, the value for `COc1cc2nncc(Oc3ccc(Nc4nnc(-c5ccccc5)c5ccccc45)cc3)c2cc1OC` [compound 254] was greater than 1.2 µM.
For the molecule `c1ccc(-c2nnc(Nc3ccc(Sc4ccnc5ccoc45)cc3)c3ccccc23)cc1` [compound 466], the EC50 came to 0.086 µM.
The same measure, in the same setting: with `Clc1ccc(-c2nnc(Nc3ccc(Oc4ccnc5[nH]ccc45)cc3)c3ccccc23)cc1` [compound 241] the figure was 0.101 µM; with `COc1cnc2c(Sc3ccc(Nc4nnc(-c5ccc(C)c(O)c5)c5ccccc45)cc3)ccnc2c1` [compound 451], less than 0.0023 µM; with `COc1cnc2c(Sc3ccc(Nc4nnc(-c5ccc(C)nc5)c5ccccc45)cc3)ccnc2c1` [compound 588], 0.004 µM.
Same read-out and setting: with `COC1CCN(c2nnc(Nc3ccc(Sc4ccnc5cc(C#N)ccc45)cc3)c3ccccc23)CC1` [compound 534] the figure was 0.006 µM; with `Clc1ccc(-c2nnc(Nc3ccc(Sc4ccnc5ccncc45)cc3)c3ccccc23)cc1` [compound 426], 0.008 µM.
As for `CCc1cc(-c2ccc(C)cc2)nnc1Nc1ccc(Nc2ccnc3cc(C#N)ccc23)cc1` [compound 596], the EC50 was determined as 0.084 µM.
Still for that read-out and setting: with `COc1ccc2nccc(Sc3ccc(Nc4nnc(-c5ccccc5)c5ccccc45)cc3)c2c1` [compound 292, N-(4-((6-(methyloxy)-4-quinolinyl)thio)phenyl)-4-phenyl-1-phthalazinamine] the figure was 0.012 µM; with `O=c1ccc2nccc(Oc3ccc(Nc4nnc(-c5ccc(Cl)cc5)c5ccccc45)cc3)c2[nH]1` [compound 569], 0.115 µM.
Still for that read-out and setting: the value for `c1ccc(-c2nnc(Nc3ccc(Oc4ncnc5[nH]ccc45)cc3)c3ccccc23)cc1` [compound 273] was greater than 1.2 µM.
Same read-out and setting: with `C[Si](C)(C)c1cc2nccc(Sc3ccc(Nc4nnc(Cl)c5ccccc45)cc3)c2o1` [compound 484] the figure was greater than 1.2 µM; with `Cn1cncc1-c1cc2nccc(Oc3ccc(Nc4nnc(-c5ccccc5)c5ccccc45)cc3)c2s1` [compound 202, N-(4-((2-(1-methyl-1H-imidazol-5-yl)thieno[3,2-b]pyridin-7-yl)oxy)phenyl)-4-phenyl-1-phthalazinamine], 0.011 µM; with `c1ccc(-c2nnc(Nc3ccc(Oc4ccnc5cc(-c6ccoc6)ccc45)cc3)c3ccccc23)cc1` [compound 343], 0.025 µM.
With `COc1cnc2c(Oc3ccc(Nc4nnc(-c5cc6ccccc6o5)c5ccccc45)cc3)ccnc2c1` [compound 176], the EC50 worked out at 0.008 µM.
The same measure, in the same setting: the value for `Cc1csc(-c2nnc(Nc3ccc(Sc4ccnc5ccc(=O)[nH]c45)cc3)c3ccccc23)c1` [compound 589] was 0.007 µM.
On the same count and under the same terms, with `Cc1csc(-c2nnc(Nc3ccc(Oc4ccnc5cccnc45)cc3)c3cc(F)c(F)cc23)c1` [compound 510] the figure was 0.017 µM; with `COc1cnc2c(Oc3ccc(Nc4nnc(-c5ccc6sc(C)nc6c5)c5ccccc45)cc3)ccnc2c1` [compound 195, 4-(2-methyl-1,3-benzothiazol-5-yl)-N-(4-((7-(methyloxy)-1,5-naphthyridin-4-yl)oxy)phenyl)-1-phthalazinamine], 0.197 µM.
On the same count and under the same terms, the value for `Fc1cc(F)c2c(Sc3ccc(Nc4nnc(-c5ccc(Cl)cc5)c5ccccc45)cc3)ccnc2c1` [compound 342] was 0.044 µM; that for `c1ccc2c(-c3ccc4c(c3)OCO4)nnc(Nc3ccc(Sc4ccnc5ccoc45)cc3)c2c1` [compound 467] was 0.016 µM.
`Clc1ccc(-c2nnc(Nc3ccc(Sc4ccnc5[nH]cnc45)cc3)c3ccccc23)cc1` [compound 363]: the EC50 is 0.032 µM.
Still for that read-out and setting: the value for `COc1cnc2c(Sc3ccc(Nc4nnc(N5CCN6C[C@H](F)C[C@H]6C5)c5ccccc45)cc3)ccnc2c1` [compound 600] was 0.007 µM.
The same measure, in the same setting: the value for `COc1cnc2c(Oc3ccc(Nc4nnc(-c5ccccc5)c5ccccc45)cn3)ccnc2c1` [Example 41, N-(6-(7-methoxy-1,5-naphthyridin-4-yloxy)pyridin-3-yl)-4-phenylphthalazin-1-amine] was 0.195 µM; that for `c1ccc2c(-c3ccc4c(c3)OCO4)nnc(Nc3ccc(Sc4ccnc5ccncc45)cc3)c2c1` [compound 427] was 0.002 µM; that for `CCc1cc(-c2cccc(Cl)c2)nnc1Nc1ccc(Oc2ccnc3cc(OC)cnc23)cc1` [compound 335] was 0.191 µM.
Still for that read-out and setting: with `COc1cccc(-c2nnc(Nc3ccc(Oc4ccnc5ccccc45)c(F)c3)c3ccccc23)n1` [compound 186] the figure was 0.031 µM; with `COc1cnc2c(Sc3ccc(Nc4nnc(-c5ccc6cn[nH]c6c5)c5ccccc45)cc3)ccnc2c1` [compound 453], less than 0.0023 µM.
With `COc1cnc2c(Oc3ccc(Nc4nnc(-c5cnc6[nH]ccc6c5)c5ccccc45)cc3)ccnc2c1` [compound 280], the EC50 was determined as 0.08 µM.
In the case of `FC(F)(F)Oc1ccc2c(Sc3ccc(Nc4nnc(-c5ccccc5)c5ccccc45)cc3)ccnc2c1` [compound 497], the EC50 stood at 0.079 µM.
In the case of `N#Cc1ccc(-c2nnc(Nc3ccc(Oc4ccnc5cc(C#N)ccc45)cc3)c3ccccc23)cc1` [compound 217], the EC50 was 0.369 µM.
`COc1cnc2c(Oc3ccc(Nc4nnc(-c5cccc6[nH]ccc56)c5ccccc45)cc3)ccnc2c1` [compound 183]: the EC50 was 0.052 µM.
The same measure, in the same setting: with `COc1cnc2c(Oc3ccc(Nc4nnc(-c5ccc(C)nc5)c5ccccc45)cc3)ccnc2c1` [compound 268] the figure was 0.066 µM.
For the molecule `COc1cnc2c(Sc3ccc(Nc4nnc(N5CCn6ncnc6C5)c5ccccc45)cc3)ccnc2c1` [compound 579], the EC50 came out at 0.054 µM.
For the molecule `Cc1csc(-c2nnc(Nc3ccc(Sc4ccnc5ccncc45)cc3)c3ccccc23)c1` [compound 428], the EC50 amounted to 0.016 µM.
The same measure, in the same setting: the value for `COc1cnc2c(Sc3ccc(Nc4nnc(N5CCC(F)CC5)c5ccccc45)cc3)ccnc2c1` [compound 557] was 0.026 µM; that for `COCCOCCOc1ccc2nccc(Sc3ccc(Nc4nnc(-c5ccc(Cl)cc5)c5ccccc45)cc3)c2c1` [Example 389, 4-(4-Chlorophenyl)-N-(4-(6-(2-(2-methoxyethoxy)ethoxy)quinolin-4-ylthio)phenyl) phthalazin-1-amine] was 0.055 µM; that for `COc1cnc2c(Oc3ccc(Nc4nnc(-c5ccc(Cl)cc5)c5c4CCC5)cc3)ccnc2c1` [compound 411] was greater than 1.2 µM.
On the same count and under the same terms, the value for `COc1cnc2c(Oc3c(F)cc(Nc4nnc(-c5ccc(Cl)cc5)c5ccccc45)cc3F)ccnc2c1` [compound 454] was 0.008 µM.
On the same count and under the same terms, with `COc1cnc2c(Sc3ccc(Nc4nnc(N5CCN6CC(F)(F)C[C@H]6C5)c5ccccc45)cc3)ccnc2c1` [compound 601] the figure was 0.005 µM.
